The results in this text go back to patent publication US6479487B1, “6, 9-disubstituted 2-[trans-(4-aminocyclohexyl)amino] purines” (Aventis Pharmaceuticals Inc., priority 1998, dated 2002).

Values joined by “and” are separate entries in the source; they are usually repeats but may differ in a detail not shown here. Equal entries are not always repeated. Structures can show the parent of a compound that is named as a salt. Where two headings read alike, the source gives them in different places.

In one assay the test system is PC-3. Put plainly: In vitro tumor cell proliferation, PC-3. Format: cell-based, human. As to conditions: many values given with an undefined *, read-out: In vitro Tumor Cell Proliferation (IC50, μM) Prostate PC-3. An outline of the steps:
(§1)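 Growth was quantified by sulforhodamine B staining of TCA-fixed cells after 3 days of drug plus 4 more days with fresh drug, or by CyQUANT after 3 days of drug and freezing at −80° C. Counted viable cells were plated and incubated overnight at 37° C before drug.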

The next assay concerns MDA-MB-231. The experiment in a line: In vitro tumor cell proliferation, MDA-MB-231. The format is cell-based, human. Conditions: sulforhodamine B or CyQUANT assay, many values given with an undefined *, read-out: In vitro Tumor Cell Proliferation (IC50, μM) Breast MDA-MB-231. An outline of the steps:
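Proliferation quantified by SRB staining of TCA-fixed cells after 3 days of drug plus 4 days with replenished drug, following overnight attachment at 37 °C.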

In a further assay the test system is A549. The experiment in a line: In vitro tumor cell proliferation, A549. Format: cell-based, human. Conditions: many values given with an undefined *, read-out: In vitro Tumor Cell Proliferation (IC50, μM) Lung A549. An outline of the steps:
as §1

In another assay the test system is HT-29. Put plainly: In vitro tumor cell proliferation, HT-29. The format is cell-based, human. Conditions: many values given with an undefined *, read-out: In vitro Tumor Cell Proliferation (IC50, μM) Colon HT-29. An outline of the steps:
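Growth was quantified either with CyQUANT, plates frozen at −80° C after 3 days of drug, or by sulforhodamine B staining of TCA-fixed cells after 3 days of drug plus 4 days with fresh drug. Trypan blue-excluding HT-29 cells were plated overnight at 37° C before dosing.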

The target of a further assay is T1, cdk2/cyclin E (Homo sapiens, UniProt P24941).
T1 construct: made in house; host or cells: insect cells (baculovirus co-infection)
The experiment in a line: Cyclin-Dependent Kinase 2 Assay (cdk2/cyclin E, GST-Rb substrate). Format: biochemical. Conditions: recombinant cdk2/cyclin E, 10 μM ATP, 30 min at 30° C., several values in a cell = separate determinations, read-out: CDK-2 Inhibition IC50. On the procedure: Substrate: GST-Rb as described above for cdk4/cyclin D1
Assay conditions for cdk2/cyclin E were identical to those for cdk4/cyclin D1 including the substrate. The concentration of recombinant cdk2/cyclin E in the assay was 0.1 μg per 100 μl assay. Incubation was for 30 min at 30° C.

The test system of another assay is DMS-114. Put plainly: In vitro tumor cell proliferation, DMS-114. The format is cell-based, human. Conditions: many values given with an undefined *, read-out: In vitro Tumor Cell Proliferation (IC50, μM) Lung DMS-114. An outline of the steps: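 Human small cell lung carcinoma DMS-114 cells plated overnight, then drug-treated for 3 days, medium and drug renewed, and incubated 4 more days. Growth read by sulforhodamine B staining after TCA fixation; alternatively by CyQUANT after 3 days' drug exposure and freezing at −80 °C.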

In a further assay the test system is DU145. The experiment in a line: In vitro tumor cell proliferation, DU145. Format: cell-based, human. Conditions: many values given with an undefined *, read-out: In vitro Tumor Cell Proliferation (IC50, μM) Prostate DU145. The essentials:
as §1

In the next assay the test system is MDA-MB-435. The experiment in a line: In vitro tumor cell proliferation, MDA-MB-435. The format is cell-based. Conditions: values given with an undefined *, read-out: In vitro Tumor Cell Proliferation (IC50, μM) Breast MDA-MB-435. The essentials:
as §1

Another assay deals with Colo-205. The experiment in a line: In vitro tumor cell proliferation, Colo-205. Conditions: values given with an undefined *, read-out: In vitro Tumor Cell Proliferation (IC50, μM) Colon Colo-205. The format is cell-based. An outline of the steps:
as §1

A further assay addresses T2, cdk4/cyclin D1 (Homo sapiens, UniProt P11802).
T2 construct: made in house; host or cells: Sf9 insect cells (Bac-to-Bac baculovirus, pFastBac)
The experiment in a line: Cyclin-dependent Kinase 4 Assay (cdk4/cyclin D1, GST-Rb substrate). The format is biochemical. As to conditions: cdk4/cyclin D1 insect cell lysate, 10 μM ATP, 30 min at 37° C., several values = separate determinations, read-out: CDK4 Inhibition IC50. The essentials: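 IC50 against cdk4 measured by scintillation counting of bead-bound GST-Rb (0.5 μg) after filtration and four TNEN washes. Reaction was 30 min at 37 °C in HEPES pH 7.5 buffer with 10 mM MgCl2 and 1 mM EGTA. Enzyme source was 0.1 μg Sf9 lysate coinfected with cdk4 and cyclin D1.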

Setting [1] is: Homo sapiens, MDA-MB-231, MDA-MB-231.
Setting [2] is: Homo sapiens, MDA-MB-435, MDA-MB-435.
Where [3] appears, read: Homo sapiens, COLO 205, Colo-205.

T2 sequence (P11802 whole entry): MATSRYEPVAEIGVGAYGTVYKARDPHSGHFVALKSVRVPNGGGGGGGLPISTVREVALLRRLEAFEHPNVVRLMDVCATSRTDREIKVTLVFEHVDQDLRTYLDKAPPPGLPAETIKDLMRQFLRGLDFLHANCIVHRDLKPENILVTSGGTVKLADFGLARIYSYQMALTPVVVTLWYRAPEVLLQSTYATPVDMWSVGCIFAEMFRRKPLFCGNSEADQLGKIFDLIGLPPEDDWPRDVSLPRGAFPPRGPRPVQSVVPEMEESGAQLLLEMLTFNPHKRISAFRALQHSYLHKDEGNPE
T2 sequence (P24385 whole entry partner): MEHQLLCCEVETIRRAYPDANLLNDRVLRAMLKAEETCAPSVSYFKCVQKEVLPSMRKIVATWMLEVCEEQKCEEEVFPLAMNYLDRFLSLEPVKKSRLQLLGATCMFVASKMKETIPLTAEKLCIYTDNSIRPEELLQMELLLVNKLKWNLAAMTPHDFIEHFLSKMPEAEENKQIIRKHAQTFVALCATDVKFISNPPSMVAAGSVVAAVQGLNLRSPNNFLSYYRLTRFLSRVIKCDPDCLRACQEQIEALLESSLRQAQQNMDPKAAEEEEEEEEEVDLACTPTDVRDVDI

For the molecule “2-[Trans-(4-aminocyclohexyl)amino]-6-[4-(1-(4-methylbenzyl))piperidinylamino]-9-cyclopentylpurine [Example 40]”, the IC50 is 0.34 µM with PC-3 (PC-3); 0.19 µM and 0.28 µM in the assay on MDA-MB-231 (MDA-MB-231); 0.18 µM with A549 (A549); 0.29 µM and 0.27 µM in the assay on HT-29 (HT-29); 230 nM and 170 nM at cdk2/cyclin E; 0.26 µM in the assay on DMS-114 (DMS-114). Further, the IC50 in the assay with DU145 (DU145) was 0.24 µM; in the assay on MDA-MB-435 (MDA-MB-435), 0.27 µM; in the assay with Colo-205 (Colo-205), 0.16 µM and 0.18 µM; on cdk4/cyclin D1, 1000 nM and 2000 nM.

In the case of `N[C@H]1CC[C@H](Nc2nc(Nc3ccc(OC(F)(F)F)cc3)c3ncn(C4CCCC4)c3n2)CC1` [Example 5, 2-[Trans-(4-aminocyclohexyl)amino]-6-[(4-trifluoromethoxy)phenylamino]-9-cyclopentylpurine dihydrochloride], the IC50 was 1.1 µM in the assay with PC-3 (Homo sapiens, PC-3, PC-3); 0.7 µM in the assay with PC-3 (PC-3, dihydrochloride); 0.78 µM in the assay on MDA-MB-231 (setting [1]); 0.87 µM in the assay with MDA-MB-231 (MDA-MB-231, dihydrochloride); 0.53 µM in the assay with A549 (A549, dihydrochloride); 0.35 µM in the assay with A549 (Homo sapiens, A549, A549). Moreover, the IC50 in the assay with HT-29 (HT-29, dihydrochloride) was 1.1 µM; in the assay on HT-29 (Homo sapiens, HT-29, HT-29) it was 1 µM; at cdk2/cyclin E, 230 nM; in the assay with DMS-114 (Homo sapiens, DMS-114, DMS-114) it was 0.47 µM; in the assay with DU145 (DU145, dihydrochloride), 0.7 µM; with DU145 (Homo sapiens, DU-145, DU145), 0.56 µM. The IC50 with MDA-MB-435 (setting [2]) was 1.3 µM; with MDA-MB-435 (MDA-MB-435, dihydrochloride), 1.5 µM; in the assay on Colo-205 (Colo-205, dihydrochloride), 1.2 µM; with Colo-205 (setting [3]), 1 µM; at cdk4/cyclin D1 it was 400 nM and 700 nM.

Consider `COc1cccc(CCNc2nc(N[C@H]3CC[C@H](N)CC3)nc3c2ncn3C2CCCC2)c1` [Example 27, 2-[Trans-(4-aminocyclohexyl)amino]-6-[2-(3-methoxyphenyl)ethylamino]-9-cyclopentylpurine dihydrochloride], for which the IC50 turned out to be 2.6 µM with PC-3 (Homo sapiens, PC-3, PC-3); 3 µM with PC-3 (PC-3, dihydrochloride); 10 µM with MDA-MB-231 (setting [1]); 6 µM in the assay with MDA-MB-231 (MDA-MB-231, dihydrochloride); 1.6 µM in the assay with A549 (A549, dihydrochloride); 3.1 µM in the assay on A549 (Homo sapiens, A549, A549). Also, the IC50 with HT-29 (HT-29, dihydrochloride) was 5.2 µM; with HT-29 (Homo sapiens, HT-29, HT-29) it was 3.8 µM; on cdk2/cyclin E it was 130 nM; in the assay with DMS-114 (Homo sapiens, DMS-114, DMS-114), 2.1 µM; in the assay with MDA-MB-435 (setting [2]), 9.3 µM; in the assay with MDA-MB-435 (MDA-MB-435, dihydrochloride), 7.2 µM. Also, the IC50 with Colo-205 (Colo-205, dihydrochloride) was 4.6 µM; in the assay on Colo-205 (setting [3]), 4.9 µM; at cdk4/cyclin D1, 1400 nM.

As for `N[C@H]1CC[C@H](Nc2nc(Nc3ccccc3)c3ncn(C4CCCC4)c3n2)CC1` [Example 32, 2-[Trans-(4-aminocyclohexyl)amino]-6-(phenylamino)-9-cyclopentylpurine dihydrochloride], the IC50 is 0.85 µM in the assay on MDA-MB-231 (setting [1]); 0.68 µM with MDA-MB-231 (MDA-MB-231, dihydrochloride); 0.68 µM in the assay with A549 (A549, dihydrochloride); 0.37 µM with A549 (Homo sapiens, A549, A549); 1.1 µM with HT-29 (HT-29, dihydrochloride); 1 µM in the assay on HT-29 (Homo sapiens, HT-29, HT-29). Further, the IC50 was 54 nM and 25 nM and 27 nM and 14 nM at cdk2/cyclin E; 0.51 µM in the assay with DMS-114 (DMS-114, dihydrochloride); 0.61 µM in the assay with DMS-114 (Homo sapiens, DMS-114, DMS-114); 0.64 µM with DU145 (DU145, dihydrochloride); 0.39 µM in the assay with DU145 (Homo sapiens, DU-145, DU145); 1.59 µM with MDA-MB-435 (setting [2]). Moreover, the IC50 is 1.39 µM in the assay on MDA-MB-435 (MDA-MB-435, dihydrochloride); 1.2 µM in the assay on Colo-205 (Colo-205, dihydrochloride); 0.82 µM in the assay on Colo-205 (setting [3]); 1300 nM and 1600 nM on cdk4/cyclin D1.

Consider `N[C@H]1CC[C@H](Nc2nc(NC3CCN(CC4CC4)CC3)c3ncn(C4CCCC4)c3n2)CC1` [Example 52, 2-[Trans-(4-aminocyclohexyl)amino]-6-[4-(1-cyclopropylmethyl)piperidinylamino]-9-cyclopentylpurine], for which the IC50 in the assay with PC-3 (Homo sapiens, PC-3, PC-3) was 1.7 µM; with PC-3 (PC-3), 2.1 µM; in the assay with MDA-MB-231 (setting [1]) it was 1 µM; in the assay on MDA-MB-231 (MDA-MB-231), 1.2 µM; with A549 (A549), 0.68 µM; with A549 (Homo sapiens, A549, A549) it was 0.57 µM. Moreover, the IC50 in the assay on HT-29 (HT-29) was 2 µM; in the assay with HT-29 (Homo sapiens, HT-29, HT-29) it was 1.6 µM; at cdk2/cyclin E, 190 nM; with DU145 (DU145), 1.5 µM; with DU145 (Homo sapiens, DU-145, DU145), 1.4 µM; in the assay on MDA-MB-435 (setting [2]), 2.1 µM. The IC50 was 2.4 µM with MDA-MB-435 (MDA-MB-435); 1.1 µM with Colo-205 (Colo-205); 1.5 µM with Colo-205 (setting [3]); 740 nM and 1400 nM and 1100 nM at cdk4/cyclin D1.

Regarding `N[C@H]1CC[C@H](Nc2nc(NNc3ccc(Cl)cc3Cl)c3ncn(C4CCCC4)c3n2)CC1` [Example 147, 2-[Trans-(4-aminocyclohexyl)amino]-6-(2,4-dichlorophenylhydrazino)-9-cyclopentylpurine dihydrochloride], the IC50 in the assay on PC-3 (Homo sapiens, PC-3, PC-3) was determined as 3.2 µM; in the assay with PC-3 (PC-3, dihydrochloride), 2.3 µM; with MDA-MB-231 (setting [1]) it was 5.1 µM; in the assay with MDA-MB-231 (MDA-MB-231, dihydrochloride), 3.2 µM; in the assay with A549 (A549, dihydrochloride), 2.6 µM; in the assay on A549 (Homo sapiens, A549, A549), 2.7 µM. The IC50 in the assay on HT-29 (HT-29, dihydrochloride) is 2 µM; in the assay with HT-29 (Homo sapiens, HT-29, HT-29) it was 2.8 µM; at cdk2/cyclin E, 268 nM; in the assay on DU145 (DU145, dihydrochloride) it was 5.7 µM; with DU145 (Homo sapiens, DU-145, DU145) it was 3.1 µM; with MDA-MB-435 (setting [2]), 5.6 µM. Moreover, the IC50 in the assay on MDA-MB-435 (MDA-MB-435, dihydrochloride) was 6 µM; with Colo-205 (Colo-205, dihydrochloride), 3.5 µM; in the assay on Colo-205 (setting [3]), 5.7 µM; at cdk4/cyclin D1 it was 5700 nM and 6100 nM.
